We go through 53 compounds from BindingDB's records for doi:10.7270/Q2V986KM (Burnham Center For Chemical Genomics, 2011).

Each structure is given as a SMILES string.

This assay concerns the target T1, Carboxy-terminal domain RNA polymerase II polypeptide A small phosphatase 1 (Homo sapiens, UniProt Q9GZU7).
T1 sequence (Q9GZU7 whole entry): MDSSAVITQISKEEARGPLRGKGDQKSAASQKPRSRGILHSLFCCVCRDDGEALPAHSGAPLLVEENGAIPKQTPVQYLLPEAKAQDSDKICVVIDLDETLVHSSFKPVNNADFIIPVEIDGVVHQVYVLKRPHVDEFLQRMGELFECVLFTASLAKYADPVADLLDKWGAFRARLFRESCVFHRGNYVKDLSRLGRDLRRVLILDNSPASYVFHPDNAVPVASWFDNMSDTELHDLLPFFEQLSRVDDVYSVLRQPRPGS
Kind of assay: CTDSP1 inhibitors, concentration-response, biochemical, absorbance-based, ultra-high-throughput screen actives (AID 540297).
For `COc1ccccc1NC(=O)CN1C(=O)/C(=N\NC(=O)c2ccccc2O)c2ccccc21` [2-hydroxy-N-[(Z)-[1-[2-(2-methoxyanilino)-2-oxoethyl]-2-oxo-3-indolylidene]amino]benzamide], the IC50 (in general, the midpoint of a concentration-inhibition curve) is 2.74 µM.

For the compound `CC1(CC(=O)NN=CC2C=C([N+](=O)[O-])C(=O)C=C2O)OCCO1` (stereo not drawn) [N'-[(E)-(2-hydroxy-5-nitro-4-oxocyclohexa-2,5-dien-1-ylidene)methyl]-2-(2-methyl-1,3-dioxolan-2-yl)acetohydrazide], the IC50 worked out at 4.41 µM.

Turning to `O=C1Nc2ccc([N+](=O)[O-])cc2/C1=N/NC(=O)c1ccccc1Cl` [2-chloro-N'-(5-nitro-2-oxoindol-3-yl)benzohydrazide], 6.44 µM corresponded to half-maximal inhibition (IC50).

In the case of `COc1cccc(N/C(C)=[N+](\C)CCNS(=O)(=O)c2ccc(Cl)cc2)c1` [SMR000672481], the IC50 worked out at 3.46 µM.

Turning to `CCOc1ccc(CN=Nc2ccc(S(=O)(=O)Nc3ccccc3C(=O)O)cc2[N+](=O)[O-])cc1OC` [SMR001308940], 3.51 µM corresponded to half-maximal inhibition (IC50).

In turn, `Cc1ccccc1NC(=O)CN1C(=O)/C(=N\NC(=O)c2ccccc2O)c2ccccc21` [2-{3-[(2-Hydroxy-benzoyl)-hydrazono]-2-oxo-2,3-dihydro-indol-1-yl}-N-o-tolyl-acetamide] gave an IC50 of 1.23 µM.

The compound `C[N+](C)(C)CCNC(=O)C1=C/C(=C\N=O)N(Cc2ccccc2)C=C1` gave an IC50 of 7.56 µM.

Turning to `Cc1cc(C)n2c(SCC(=O)C(C#N)c3nc4ccccc4[nH]3)nnc2n1` (stereo not drawn) [2-(1,3-dihydrobenzimidazol-2-ylidene)-4-[(5,7-dimethyl-[1,2,4]triazolo[4,3-a]pyrimidin-3-yl)sulfanyl]-3-oxidanylidene-butanenitrile], the IC50 turned out to be 5.01 µM.

Compound `CC1=CC(=NNC(=O)c2ccccc2O)c2ccccc2C1=O` [MLS000685531] displayed an IC50 of 5.15 µM.

In turn, `Cc1cccc(NC(=O)CN2C(=O)/C(=N\NC(=O)c3ccccc3O)c3ccccc32)c1` [MLS000548432] showed an IC50 of 1.99 µM.

`O=C(O)c1cccc(-n2c(O)c3c(c2O)CC(Cl)=CC3)c1` [3-[5-chloranyl-1,3-bis(oxidanylidene)-3a,4,7,7a-tetrahydroisoindol-2-yl]benzoic acid] came in with a concentration for half-maximal inhibition (IC50) of 10.3 µM.

Take `O=C1CC(=O)c2cccc(O)c2C1=O` [4,8-dihydroxynaphthalene-1,2-dione]: inhibition was half-maximal at 44.5 µM (IC50).

In the case of `COc1ccc(CN=Nc2ncc(Br)cn2)c(OC)c1` [MLS000856301], 19.6 µM corresponded to half-maximal inhibition (IC50).

For the compound `CC(=NNC(=O)c1cccc(N=NC(C)c2ccco2)c1)c1ccco1` (stereo not drawn) [N-[1-(2-furanyl)ethylideneamino]-3-[2-[1-(2-furanyl)ethylidene]hydrazinyl]benzamide], inhibition was half-maximal at 3.17 µM (IC50).

`CC=CC=CC(=O)C1C(=O)[C@]2(C)C(=O)C(C)(O)[C@H]1[C@H]([C@]1(C)OC(=O)C(C)C1=O)[C@H]2C(=O)C=CC=CC` (stereo partly drawn) [(1S,4R,6E,7S,8R)-8-[(2E,4E)-hexa-2,4-dienoyl]-2-hydroxy-7-[(2S)-5-hydroxy-2,4-dimethyl-3-oxofuran-2-yl]-6-[(2E,4E)-1-hydroxyhexa-2,4-dienylidene]-2,4-dimethylbicyclo[2.2.2]octane-3,5-dione] gave an IC50 of 5.92 µM.

`Cc1nnc(NS(=O)(=O)c2ccc(/N=N/c3ccc(N)nc3N)cc2)s1` registered an IC50 of 11.5 µM.

In turn, `CCCCC1(C)OC(=O)C(=Cc2ccc(-c3ccc(Cl)c(C(=O)O)c3)o2)C(=O)O1` (stereo not drawn) displayed an IC50 of 15.1 µM.

`O=C1C=CC(/C=C/c2nc(O)c([N+](=O)[O-])c(=O)[nH]2)C=C1O` (stereo not drawn) [SMR000524347] had an IC50 of 36.1 µM.

`C/C(Nc1ccc(F)cc1)=[N+](/C)CCNS(=O)(=O)c1ccc(Cl)cc1` showed an IC50 of 5.86 µM.

Consider `COc1ccccc1N/C(C)=[N+](\C)CCNS(=O)(=O)c1ccc(Cl)cc1` [MLS001165874], for which the IC50 is 3.73 µM.

In turn, `C=CCOc1ccc(CN=Nc2ccc(S(=O)(=O)Nc3ccccc3C(=O)O)cc2[N+](=O)[O-])cc1OC` [2-[[4-[2-[(3-methoxy-4-prop-2-enoxy-phenyl)methylidene]hydrazinyl]-3-nitro-phenyl]sulfonylamino]benzoic acid] displayed an IC50 of 2 µM.

Compound `O=c1c(Cl)c(N=NCc2ccc(Br)cc2)cnn1-c1ccccc1` had an IC50 of more than 80 µM.

For `CCN(CC)P(=O)(NC(=O)C(Cl)(Cl)Cl)N(CC)CC` [MLS000564159], the IC50 turned out to be 2.49 µM.

Turning to `Cc1cccc(C(=O)/N=c2\c(C#N)cc3c(=O)n4cccc(C)c4nc3n2Cc2ccco2)c1` [N-[3-cyano-1-(furan-2-ylmethyl)-10-methyl-5-oxodipyrido[3,4-c:1',2'-f]pyrimidin-2-ylidene]-3-methylbenzamide], the IC50 turned out to be 5.58 µM.

Consider `CCCCCn1cc(O)c(-c2nc(-c3ccc(Cl)cc3)cs2)c1N` [5-azanyl-4-[4-(4-chlorophenyl)-1,3-thiazol-2-yl]-1-pentyl-2H-pyrrol-3-one], for which the IC50 came to 5.38 µM.

For the compound `C=CCC1C=C(/C=C/c2nc(O)c([N+](=O)[O-])c(=O)[nH]2)C=C(OC)C1=O` (stereo not drawn) [MLS000716350], inhibition was half-maximal at 19.3 µM (IC50).

`COc1cc(CN=Nc2nc(O)c(CC(=O)O)s2)ccc1OCc1ccc(Cl)cc1` [2-[2-[2-[[4-[(4-chlorophenyl)methoxy]-3-methoxy-phenyl]methylidene]hydrazinyl]-4-oxidanylidene-1,3-thiazol-5-yl]ethanoic acid]: it took 12.4 µM to reach half-maximal inhibition (IC50).

Compound `COc1ccc(CN=Nc2nc(O)c(CC(=O)O)s2)cc1OCc1ccc(Cl)cc1Cl` [[2-({3-[(2,4-dichlorobenzyl)oxy]-4-methoxybenzylidene}hydrazono)-4-oxo-1,3-thiazolidin-5-yl]acetic acid] yielded an IC50 of 4.48 µM.

With `CC(=O)C(C[N+]1(C)CCCCC1)N=O` (stereo not drawn), 3.4 µM corresponded to half-maximal inhibition (IC50).

Turning to `CCOc1cc(CN=Nc2nc(O)c(CC(=O)O)s2)ccc1OCc1ccc(Cl)cc1` [2-[2-[2-[[4-[(4-chlorophenyl)methoxy]-3-ethoxy-phenyl]methylidene]hydrazinyl]-4-oxidanylidene-1,3-thiazol-5-yl]ethanoic acid], inhibition was half-maximal at 7.12 µM (IC50).

In turn, `C[N+]1=C(CC=Nc2ccccc2Cl)C(C)(C)c2ccccc21` [SMR000173746] returned an IC50 of 5.96 µM.

For `Cc1ccc(-n2[nH]c(C)c(CN=Nc3ccc([N+](=O)[O-])cc3[N+](=O)[O-])c2=O)cc1C` [(4E)-2-(3,4-dimethylphenyl)-4-[[(2,4-dinitrophenyl)hydrazo]methylidene]-5-methyl-3-pyrazolone], it took 3.32 µM to reach half-maximal inhibition (IC50).

`O=C(O)CCC(N=Nc1ccc(S(=O)(=O)N2CCCC2)cc1[N+](=O)[O-])c1cccs1` (stereo not drawn) [4-[(2-nitro-4-pyrrolidin-1-ylsulfonyl-phenyl)hydrazinylidene]-4-thiophen-2-yl-butanoic acid] displayed an IC50 of 15.5 µM.

Regarding `O=c1cc(O)[n+]2nc(-c3ccc([N+](=O)[O-])cc3)sc2[n-]1` [SMR000175134], it took 5.67 µM to reach half-maximal inhibition (IC50).

In turn, `Cc1ccc(C(=O)NN=C/C=C/c2ccc(Br)cc2)cn1` [MLS000723380] had an IC50 of 24.1 µM.

`CCOc1ccccc1/N=C1\SCCCN1C`: the IC50 is 23 µM.

On to `O=C(O)CNC(=O)Cc1sc(NNc2nc(O)cs2)nc1O`, for which the IC50 came out at 5.27 µM.

In turn, `C/C(C=NNC(=O)c1ccc(Br)cc1)=C\c1ccccc1` [SMR000140417] yielded an IC50 of 4.83 µM.

With `CON=C(C(=O)N[C@@H]1C(=O)N2C(C(=O)O)=C(COC(N)=O)CS[C@H]12)c1ccco1`, the IC50 came to 2.09 µM.

The compound `CCOC(=O)C1C(COC(=O)C=Cc2ccco2)=NC(=O)NC1C` (stereo not drawn) came in with an IC50 of 4.25 µM.

With `CSc1nnc(C)c(CC=Nc2ccc(F)cc2F)n1` [MLS000707071], the half-inhibitory concentration (IC50) was determined as 13.3 µM.

Consider `O=C(O)Cc1sc(N=NCc2ccccc2)nc1-c1ccccc1`, for which half-maximal inhibition (IC50) was put at 5.14 µM.

On to `COc1ccc(N/C(C)=[N+](\C)CCNS(=O)(=O)c2ccc(Cl)cc2)cc1`, for which the IC50 was 3.29 µM.

For the compound `O=NCc1cc(Br)ccc1OCC(=O)O` [2-[4-bromanyl-2-(hydroxyiminomethyl)phenoxy]ethanoic acid], the IC50 was found to be 8.03 µM.

Take `C=c1[nH]c(=Cc2ccc(CNC(=O)C(=O)Nc3ccccc3)o2)c(O)c1C(=O)OCC` [(5E)-5-[[5-[[(2-anilino-1,2-dioxoethyl)amino]methyl]-2-furanyl]methylidene]-2-methyl-4-oxo-1H-pyrrole-3-carboxylic acid ethyl ester]: the IC50 is 8.55 µM.

Turning to `Cc1ccc(-c2csc(-n3[nH]c(C)c(N=Nc4ccccc4O)c3=O)n2)cc1`, half-maximal inhibition (IC50) was put at 3.69 µM.

In turn, `N#CC1=c2sc(=Cc3ccco3)c(=O)n2C(=N)C(C#N)C1c1ccco1` (stereo not drawn) [5-amino-7-(furan-2-yl)-2-(furan-2-ylmethylidene)-3-oxo-7H-[1,3]thiazolo[3,2-a]pyridine-6,8-dicarbonitrile] had an IC50 of 3.44 µM.

`COc1ccc(/C=C/C(=O)Oc2cccc(C=NNC(=O)c3cccc(F)c3)c2)cc1` [[3-[[(3-fluorobenzoyl)hydrazinylidene]methyl]phenyl] (E)-3-(4-methoxyphenyl)prop-2-enoate] came in with an IC50 of 12.8 µM.

Regarding `Cc1cc(=O)n(-c2ccc(Cl)c(C(=O)O)c2)[nH]1` [2-Chloro-5-(3-methyl-5-oxo-4,5-dihydro-pyrazol-1-yl)-benzoic acid], the IC50 was determined as 8.96 µM.

`Cc1ccc2c(c1)=C(NNC(=O)c1ccc(NS(=O)(=O)c3cccs3)cc1)C(=O)N=2` [N-[4-[[(5-methyl-2-oxoindol-3-yl)amino]carbamoyl]phenyl]thiophene-2-sulfonamide] gave an IC50 of 11.5 µM.

Consider `O=C(NN=C/C=C\c1ccco1)c1ccccn1` [Pyridine-2-carboxylic acid [(Z)-3-furan-2-yl-prop-2-en-(E)-ylidene]-hydrazide], for which the IC50 was found to be 14.5 µM.

For `O=C(CSc1nc(O)cc(=O)[nH]1)Nc1ccccc1[N+](=O)[O-]` [SMR000620617], the IC50 is 4.04 µM.

`CCOc1ccccc1C(=O)c1cc(O)c2ccccc2c1O` [2-[(2-ethoxyphenyl)-oxidanyl-methyl]naphthalene-1,4-dione]: it took 4.16 µM to reach half-maximal inhibition (IC50).
